{"source": "PubChem BioAssay AID2060884", "about": "(Molecular Pharmacology Branch, DTP, NCI, 2025)", "tested_on": "NCI-H929 complex spheroids, viability % test/control", "assay": "Anticancer human tumor NCI-H929 cell line growth inhibition [RAS];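 for all read-outs here: compound exposure lasted seven days before viability was read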;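 for viability, T/C: 100% = DMSO vehicle control viability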", "conditions": "for IC50: curve of first compound; for viability, T/C: stronger effect = lower value", "method_in_brief": "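Agents were tested in combination matrices in half-log decrements from a top concentration at or near clinical Cmax (10 microM if undetermined). Targets were multi-cell spheroids of tumour lines plus HUVEC and MSC stromal cells.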", "data": [{"molecule": "CC1(O)CCCC1n1c(=O)c(C(F)F)cc2cnc(NC3CCN(S(C)(=O)=O)CC3)nc21", "note": "(configuration not stated) + C#Cc1c(F)ccc2cc(O)cc(-c3ncc4c(N5CC6CCC(C5)N6)nc(OCC56CCCN5CC(F)C6)nc4c3F)c12", "values": [{"measurement": "IC50", "setting": "second compound 0.0316 µM", "result": 190, "unit": "nM"}, {"measurement": "IC50", "setting": "second compound 0.1 µM", "result": 191, "unit": "nM"}, {"measurement": "IC50", "setting": "second compound 0.316 µM", "result": 194, "unit": "nM"}, {"measurement": "IC50", "setting": "second compound 1 µM", "result": 193, "unit": "nM"}, {"measurement": "IC50", "setting": "second compound 3.16 µM", "result": 183, "unit": "nM"}, {"measurement": "IC50", "setting": "second compound 10 µM", "result": 105, "unit": "nM"}, {"measurement": "viability, T/C", "setting": "second compound 0.0316 µM, first compound 0.0316 µM", "result": 112, "unit": "%"}, {"measurement": "viability, T/C", "setting": "second compound 0.0316 µM, first compound 0.1 µM", "result": 106, "unit": "%"}, {"measurement": "viability, T/C", "setting": "second compound 0.0316 µM, first compound 0.316 µM", "result": 5.76, "unit": "%"}, {"measurement": "viability, T/C", "setting": "second compound 0.0316 µM, first compound 1 µM", "result": 10.1, "unit": "%"}, {"measurement": "viability, T/C", "setting": "second compound 0.0316 µM, first compound 3.16 µM", "result": 3.99, "unit": "%"}, {"measurement": "viability, T/C", "setting": "second compound 0.0316 µM, first compound 10 µM", "result": 0.89, "unit": "%"}, {"measurement": "viability, T/C", "setting": "second compound 0.1 µM, first compound 0.0316 µM", "result": 104, "unit": "%"}, {"measurement": "viability, T/C", "setting": "second compound 0.1 µM, first compound 0.1 µM", "result": 108, "unit": "%"}, {"measurement": "viability, T/C", "setting": "second compound 0.1 µM, first compound 0.316 µM", "result": 5.96, "unit": "%"}, {"measurement": "viability, T/C", "setting": "second compound 0.1 µM, first compound 1 µM", "result": 11.6, "unit": "%"}, {"measurement": "viability, T/C", "setting": "second compound 0.1 µM, first compound 3.16 µM", "result": 3.51, "unit": "%"}, {"measurement": "viability, T/C", "setting": "second compound 0.1 µM, first compound 10 µM", "result": 0.63, "unit": "%"}, {"measurement": "viability, T/C", "setting": "second compound 0.316 µM, first compound 0.0316 µM", "result": 105, "unit": "%"}, {"measurement": "viability, T/C", "setting": "second compound 0.316 µM, first compound 0.1 µM", "result": 112, "unit": "%"}, {"measurement": "viability, T/C", "setting": "second compound 0.316 µM, first compound 0.316 µM", "result": 6.91, "unit": "%"}, {"measurement": "viability, T/C", "setting": "second compound 0.316 µM, first compound 1 µM", "result": 13.5, "unit": "%"}, {"measurement": "viability, T/C", "setting": "second compound 0.316 µM, first compound 3.16 µM", "result": 4.01, "unit": "%"}, {"measurement": "viability, T/C", "setting": "second compound 0.316 µM, first compound 10 µM", "result": 0.21, "unit": "%"}, {"measurement": "viability, T/C", "setting": "second compound 1 µM, first compound 0.0316 µM", "result": 107, "unit": "%"}, {"measurement": "viability, T/C", "setting": "second compound 1 µM, first compound 0.1 µM", "result": 109, "unit": "%"}, {"measurement": "viability, T/C", "setting": "second compound 1 µM, first compound 0.316 µM", "result": 6.21, "unit": "%"}, {"measurement": "viability, T/C", "setting": "second compound 1 µM, first compound 1 µM", "result": 11.2, "unit": "%"}, {"measurement": "viability, T/C", "setting": "second compound 1 µM, first compound 3.16 µM", "result": 3.72, "unit": "%"}, {"measurement": "viability, T/C", "setting": "second compound 1 µM, first compound 10 µM", "result": 0.45, "unit": "%"}, {"measurement": "viability, T/C", "setting": "second compound 3.16 µM, first compound 0.0316 µM", "result": 114, "unit": "%"}, {"measurement": "viability, T/C", "setting": "second compound 3.16 µM, first compound 0.1 µM", "result": 99, "unit": "%"}, {"measurement": "viability, T/C", "setting": "second compound 3.16 µM, first compound 0.316 µM", "result": 6, "unit": "%"}, {"measurement": "viability, T/C", "setting": "second compound 3.16 µM, first compound 1 µM", "result": 12.5, "unit": "%"}, {"measurement": "viability, T/C", "setting": "second compound 3.16 µM, first compound 3.16 µM", "result": 2.73, "unit": "%"}, {"measurement": "viability, T/C", "setting": "second compound 3.16 µM, first compound 10 µM", "result": 0.21, "unit": "%"}, {"measurement": "viability, T/C", "setting": "second compound 10 µM, first compound 0.0316 µM", "result": 97.9, "unit": "%"}, {"measurement": "viability, T/C", "setting": "second compound 10 µM, first compound 0.1 µM", "result": 51.8, "unit": "%"}, {"measurement": "viability, T/C", "setting": "second compound 10 µM, first compound 0.316 µM", "result": 10.6, "unit": "%"}, {"measurement": "viability, T/C", "setting": "second compound 10 µM, first compound 1 µM", "result": 11.6, "unit": "%"}, {"measurement": "viability, T/C", "setting": "second compound 10 µM, first compound 3.16 µM", "result": 3.3, "unit": "%"}, {"measurement": "viability, T/C", "setting": "second compound 10 µM, first compound 10 µM", "result": 0.45, "unit": "%"}]}]}
